Source: publication PMC9814929, “Control over the fibrillization yield by varying the oligomeric nucleation propensities of self-assembling peptides” (Communications Chemistry, 2020)
“And” between values parts separate entries of the source, which are not always exact repeats. Identical values can stand only once. Peptide text beside a SMILES is read from it.

Assays:
[1] = larger oligomers or early nucleated structures; 1 µM Cy5-SLP in 4 mM unlabeled SLP, PBS pH 7.4; early assembly phase, measured after 5 min of preparatory work
Experimental: To validate this hypothesis, we performed fluorescence correlation spectroscopy (FCS) measurements to study the diffusion properties of SLPs in the early phase of self-assembly. […] To explore these size differences in more detail, we fitted the FCS data with a higher-order fitting model. Maximum entropy method (MEM) was chosen to account for the polydispersity of the oligomers. Each condensed fraction was treated as one quasi-continuous distribution, so as to provide the widest data-complying size distribution (least chance of overinterpretation)[34].
The measurement concentration was 4 mM of SLPs in PBS (pH 7.4) of which 1 out of 4000 peptides was labeled with Cy5. The FCS autocorrelation curves were fitted with the maximum entropy method (MEM) for higher-resolution analysis on size distribution, indicated by the solid lines. c The size distribution of SLPs obtained from MEM analysis of the FCS measurements. The dashed line at D = 150 µm^2/s indicates the cut-off size between monomeric (D > 150) and oligomer (D < 150) populations.
Fluorescence time traces were obtained by focusing a 640-nm laser line through a water immersion objective lens (×60 Plan Apo VC, N.A. 1.2, Nikon, Japan) at ~50 µm above the bottom of the glass-bottom 96-well plate (Grainer Bio-one, Frickenhausen, Germany). […] After 5 min of preparatory work, 50 µl of sample was measured with confocal microscope (Nikon C1). […]

[2] = not given; remark: listed apart in the source
[3] = not given; remark: listed apart in the source
[4] = not given; remark: listed apart in the source
[5] = Negative-staining TEM and AFM of the mesoscale structure of SLP assemblies; assay type: physicochemical; settings: 4 mM, pH 7.4 in PBS
Experimental: Next, we investigated the downstream effect of the differences in size of oligomeric particles and β-sheet propensities on the supramolecular self-assembly. One of the pivotal events in defining supramolecular self-assembly is whether nucleation has taken place or not. This can be identified by the mesoscale structures of the assemblies after certain time of incubation, e.g., the formation of one-dimensional (1D) nanostructures is indicative that nucleation has taken place. We used negative-staining transmission electron microscopy (TEM) and atomic force microscopy (AFM) to compare SLPs that were assembled under the same preparation protocol (4 mM, pH 7.4 in phosphate-buffered saline (PBS) for 3 days). We could indeed detect markedly different mesoscale structures in these SLP systems (Figs. 3a and S1). […] Based on these mesoscale evidences, we can deduce that nucleation occurred in SLP1–3, however, not in SLP4.
Peptide assemblies were prepared by dissolving peptide powders in nine volumes of 10 mM sodium hydroxide in 1.5 ml Eppendorf tube. One volume of PBS (10×) was added to make sample of pH 7.4 ± 0.2 and a final concentration of 4 mM. Solution was vortexed for 5 s and incubated statically for 3 days at room temperature before proceeding for measurements.
Samples prepared at 4 mM were diluted tenfold with 1× PBS. Formvar/carbon-coated 400 mesh copper grid (Polysciences Inc.) was placed on top of a droplet of 20 μl of diluted samples. After 2-min incubation, the grid was washed three times with […] filtered mili-Q water and blotted dry with filter paper. Negative staining was performed for 1 min with 2% w/v uranyl acetate in water. Staining solution was blotted off with filter paper. […]
AFM micrographs were recorded using a Bruker MultiMode 8 (ScanAsyst Air silicon nitride probes, spring constant 0.4 N/m, nominal tip radius 2 nm) and post-processed by a plane subtraction and line alignment. Three different spots (one in main text, two in Fig. S3) were measured on the sample to confirm uniformity and get a comprehensive view of the sample’s features.

[6] = Solid-state NMR population profiling (dipolar CP and scalar INEPT spectra) of fibril and non-fibril assemblies; assay type: physicochemical; settings: 4 mM, pH 7.4 in PBS, 3 days, 500 MHz, 10 kHz MAS, 280 K; for normalization scaling factor of the dipolar ssNMR spectrum relative to SLP1 (higher factor = lower fibrillization yield): dipolar CP spectra report on rigid 1D nanofibers
Experimental: As a next step, we hypothesized that higher-resolution methods might disclose further differences in the properties of the SLP assemblies. To examine our hypothesis, we profiled the SLP1–4 assemblies using ssNMR spectroscopy. Using the same conditions (4 mM, pH 7.4 in PBS for 3 days), we acquired the so-called dipolar cross-polarization (CP) ssNMR spectra and so-called scalar INEPT ssNMR spectra on isotopically (^13C, ^15N) labeled SLP assemblies (see “Methods”), which enables to quantify rigid and mobile populations of peptide assemblies in the systems[36] (Fig. 3b). While dipolar signals report on immobilized peptides in 1D assemblies, scalar spectra report on peptides with fast pico-to-nanosecond dynamics, which can either be monomeric peptides or micellar oligomers[16],[32]. We specifically labeled residues in the hydrophobic tail (Val1–2 and Leu6–7) that are responsible for the self-assembly. […] The intensity of the dipolar spectra correlates with the amount of rigid cross-β structure present in the system. We observe that the intensities of dipolar signal of SLP1 is larger than SLP2 (normalization scaling factor of 10, Fig. 3b) and SLP3 (normalization scaling factor of 25, Fig. 3b), which indicate the relative fibrillization yield of SLP1 > SLP2 > SLP3. […]
1D CP[48] and scalar[49] ssNMR experiments to probe rigid and mobile populations, respectively, were acquired at 11.7 T magnetic field (500 MHz (^1H frequency) with 10 kHz magic angle spinning (MAS) and 280 K sample temperature. 2D ^13C–^13C and 2D CαN for peptide assignments were also performed at similar conditions. 2D Ca(N)H experiments for ^15NT1rho relaxation studies were performed at 950 MHz magnetic field strength with 60 kHz. ^13C was detected in the indirect dimension because of spectral overlap in the ^15N dimension. The 2D ^13C–^13C PARIS[37] experiment with the CPMAS CryoProbe[39] to measure intermolecular peptide contacts was performed at 600 MHz and 12 kHz MAS using 700 ms magnetization transfer and a ^1H recoupling amplitude of 6 kHz.

**Q.** For CC[C@H](C)[C@H](NC(=O)[C@@H](NC(=O)[C@@H](NC(=O)[C@@H](NC(=O)[C@@H](NC(C)=O)C(C)C)C(C)C)C(C)C)[C@@H](C)O)C(=O)N[C@@H](CC(C)C)C(=O)N[C@@H](CC(C)C)C(=O)N[C@@H](CCC(=O)O)C(=O)N[C@@H](CCC(=O)O)C(=O)O [SLP1] (Ac-VVVTILLEE-OH), which nanofiber diameter is on record?
**A.** 10 nm

**Q.** What about the “diffusion coefficient of the SLP population (MEM analysis of FCS)” value [1] of the same compound?
**A.** 0.1–1 µm^2/s

**Q.** What about the oligomer diffusion coefficient, fold smaller than SLP3–4 [2] of the same compound?
**A.** 10 times and 10 fold

**Q.** And the nanofiber length [3]?
**A.** > 1000 nm

**Q.** And the XRD cross-β reflection [4]?
**A.** 4.7 Å

**Q.** Which “mesoscale structure of the assemblies (TEM, AFM)” value ([5]; 3 days static at room temperature) does the source give for CC(=O)N[C@H](C(=O)N[C@H](C(=O)N[C@H](C(=O)N[C@H](C(=O)N[C@@H](CC(C)C)C(=O)N[C@@H](CC(C)C)C(=O)N[C@@H](CC(C)C)C(=O)N[C@@H](CCC(=O)O)C(=O)N[C@@H](CCC(=O)O)C(=O)N[C@@H](CCC(=O)O)C(=O)O)[C@@H](C)O)C(C)C)C(C)C)C(C)C [SLP4] (Ac-VVVTLLLEEE-OH) here?
**A.** polydisperse zero-dimensional nanostructures

**Q.** What about the “diameter of the assembled nanostructures” value ([5]; TEM/AFM, 3 days) of the same compound?
**A.** 10–60 nm

**Q.** What about the “nucleation event deduced from mesoscale structure” value ([5]; TEM/AFM, 3 days) of the same compound?
**A.** no nucleation event has taken place

**Q.** And the “dipolar ssNMR signals (immobile assemblies)” value [6]?
**A.** absent

**Q.** Which “normalization scaling factor of the dipolar ssNMR spectrum relative to SLP1 (higher factor = lower fibrillization yield)” value [6] does the source give for CC(=O)N[C@H](C(=O)N[C@H](C(=O)N[C@H](C(=O)N[C@H](C(=O)N[C@@H](CC(C)C)C(=O)N[C@@H](CC(C)C)C(=O)N[C@@H](CC(C)C)C(=O)N[C@@H](CCC(=O)O)C(=O)N[C@@H](CCC(=O)O)C(=O)O)[C@@H](C)O)C(C)C)C(C)C)C(C)C [SLP2] (Ac-VVVTLLLEE-OH) here?
**A.** 10

**Q.** And the nanofiber length [3]?
**A.** > 1000 nm

**Q.** What about the XRD cross-β reflection [4] of the same compound?
**A.** 4.7 Å

**Q.** For CC[C@H](C)[C@H](NC(=O)[C@@H](NC(=O)[C@@H](NC(=O)[C@@H](NC(=O)[C@@H](NC(C)=O)C(C)C)C(C)C)C(C)C)[C@@H](C)O)C(=O)N[C@@H](CC(C)C)C(=O)N[C@@H](CC(C)C)C(=O)N[C@@H](CCC(=O)O)C(=O)N[C@@H](CCC(=O)O)C(=O)N[C@@H](CCC(=O)O)C(=O)O [SLP3] (Ac-VVVTILLEEE-OH), which nanofiber diameter is on record?
**A.** 10 nm

**Q.** What about the “normalization scaling factor of the dipolar ssNMR spectrum relative to SLP1 (higher factor = lower fibrillization yield)” value [6] of the same compound?
**A.** 25

**Q.** And the nanofiber length [3]?
**A.** > 1000 nm

**Q.** And the XRD cross-β reflection [4]?
**A.** 4.7 Å
